Results on 22 compounds are retold here after patent publication US10464911B2, “1,3,4-oxadiazole sulfamide derivative compounds as histone deacetylase 6 inhibitor, and the pharmaceutical composition comprising the same” (Chong Kun Dang Pharmaceutical Corp., priority 2015, dated 2019).

The IC50 is the concentration needed to halve the response being measured.

Structures are written as SMILES.

For one test, the target named is human recombinant HDAC6 (Homo sapiens (Human), UniProt Q9UBN7). The test can be described thus: HDAC6 enzyme activity inhibition assay (HDAC Fluorimetric Drug Discovery Kit). The conditions noted are these: for HDAC6 selectivity (fold): HDAC6 versus HDAC1; for IC50: human recombinant HDAC6, same protocol as HDAC1 test. It counts as biochemical. How it is done:
(§1) In order to examine the HDAC6 selectivity of the compounds of formula I of the present invention by HDAC1 and HDAC6 enzymatic activity inhibition assays, an experiment was performed using a conventional substance as a control.
(§2) HDAC enzyme activity was measured using a HDAC Fluorimetric Drug Discovery Kit (BML-AK511, 516, Enzo Life Science). For the HDAC1 enzyme activity test, human recombinant HDAC1 (BML-SE456) was used as an enzyme source, and Fluor de Lys®-“SIRT1 (BNL-KI177) was used as a substrate. A 5-fold dilution of the compound was seeded into a 96-well plate, and then 0.3 μg of the enzyme and 10 μM of the substrate were added to each well of the plate and allowed to react at 30 for 60 minutes. Then, Fluor de Lys®-Developer II (BML-KI176) was added thereto and allowed to react for 30 minutes, after which the fluorescence value (Ex 360, Em 460) was measured using a multi-plate reader (Flexstation 3, Molecular Device). The HDAC6 enzyme was tested using human recombinant HDAC6 (382180) (Calbiochem) according to the same protocol as the HDAC1 enzyme activity test method. Based on the resulting values, each IC50 value was calculated using GraphPad Prism4.0 program.

The target in another test is human recombinant HDAC1 (Homo sapiens (Human), UniProt Q13547). The test can be described thus: HDAC1 enzyme activity inhibition assay (HDAC Fluorimetric Drug Discovery Kit). To be noted: human recombinant HDAC1, Fluor de Lys substrate 10 μM, 60 minutes. Type of test: biochemical. As for the experimental part:
as §1, §2

human recombinant HDAC6, sequence (Q9UBN7 whole entry): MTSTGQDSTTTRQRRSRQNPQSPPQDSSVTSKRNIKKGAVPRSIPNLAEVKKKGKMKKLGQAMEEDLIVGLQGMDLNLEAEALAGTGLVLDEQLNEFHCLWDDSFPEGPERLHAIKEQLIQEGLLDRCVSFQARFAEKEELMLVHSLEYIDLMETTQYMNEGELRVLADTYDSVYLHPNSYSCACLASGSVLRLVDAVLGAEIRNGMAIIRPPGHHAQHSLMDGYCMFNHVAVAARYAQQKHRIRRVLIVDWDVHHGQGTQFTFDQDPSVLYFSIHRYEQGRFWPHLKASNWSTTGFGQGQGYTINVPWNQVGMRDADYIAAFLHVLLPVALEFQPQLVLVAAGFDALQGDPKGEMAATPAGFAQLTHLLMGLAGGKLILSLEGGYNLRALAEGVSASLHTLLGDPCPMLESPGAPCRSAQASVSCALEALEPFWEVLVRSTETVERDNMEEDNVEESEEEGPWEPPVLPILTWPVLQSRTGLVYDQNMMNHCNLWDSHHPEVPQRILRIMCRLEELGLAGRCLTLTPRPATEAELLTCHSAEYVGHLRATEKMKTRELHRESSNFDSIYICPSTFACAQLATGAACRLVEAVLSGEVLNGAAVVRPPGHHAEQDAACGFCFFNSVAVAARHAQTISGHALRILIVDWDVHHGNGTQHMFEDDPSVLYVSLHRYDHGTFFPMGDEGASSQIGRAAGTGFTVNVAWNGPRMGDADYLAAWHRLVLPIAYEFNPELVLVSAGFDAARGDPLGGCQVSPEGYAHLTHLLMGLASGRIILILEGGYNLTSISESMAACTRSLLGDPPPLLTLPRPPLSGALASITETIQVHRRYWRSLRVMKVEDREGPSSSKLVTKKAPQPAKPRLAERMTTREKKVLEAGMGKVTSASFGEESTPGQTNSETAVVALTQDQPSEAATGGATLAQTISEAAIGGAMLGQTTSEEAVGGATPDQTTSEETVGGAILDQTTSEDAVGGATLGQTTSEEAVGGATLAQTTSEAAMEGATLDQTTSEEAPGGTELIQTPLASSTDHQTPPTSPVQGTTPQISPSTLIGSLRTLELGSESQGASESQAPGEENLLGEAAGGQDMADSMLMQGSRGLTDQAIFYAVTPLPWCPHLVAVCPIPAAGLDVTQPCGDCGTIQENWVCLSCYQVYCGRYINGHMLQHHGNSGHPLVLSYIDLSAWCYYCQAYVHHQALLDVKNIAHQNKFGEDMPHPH
human recombinant HDAC1, sequence (Q13547 whole entry): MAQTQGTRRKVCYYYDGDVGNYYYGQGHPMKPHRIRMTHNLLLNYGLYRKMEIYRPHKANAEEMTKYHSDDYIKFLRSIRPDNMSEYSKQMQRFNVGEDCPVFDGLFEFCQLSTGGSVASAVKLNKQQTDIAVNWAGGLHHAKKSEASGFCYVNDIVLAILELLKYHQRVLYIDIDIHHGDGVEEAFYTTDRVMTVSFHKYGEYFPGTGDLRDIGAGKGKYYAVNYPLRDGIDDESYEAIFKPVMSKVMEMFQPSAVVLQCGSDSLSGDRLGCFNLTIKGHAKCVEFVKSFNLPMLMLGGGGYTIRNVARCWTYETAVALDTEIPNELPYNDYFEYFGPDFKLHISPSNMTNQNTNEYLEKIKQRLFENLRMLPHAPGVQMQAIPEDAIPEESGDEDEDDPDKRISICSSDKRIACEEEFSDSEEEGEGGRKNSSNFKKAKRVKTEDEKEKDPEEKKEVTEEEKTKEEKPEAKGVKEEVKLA

`O=S1(=O)CCN(S(=O)(=O)N(Cc2ccc(-c3nnc(C(F)F)o3)cn2)c2ccc(F)c(Cl)c2)CC1` [Compound 11498, N-(3-chloro-4-fluorophenyl)-N-((5-(5-(difluoromethyl)-1,3,4-oxadiazol-2-yl)pyridin-2-yl)methyl)thiomorpholine-4-sulfonamide 1,1-dioxide]: on human recombinant HDAC6, the “HDAC6 selectivity (fold)” value stood at 2141 fold and the IC50 worked out at 23 nM. The half-inhibitory concentration (IC50) at human recombinant HDAC1 came to 49200 nM.

For `CN1CCN(CCN(C)S(=O)(=O)N(Cc2ccc(-c3nnc(C(F)F)o3)cc2)c2ccccc2)CC1` [Compound 11702, 2-((4-(((N-methyl-N-(2-(4-methylpiperazin-1-yl)ethyl)sulfamoyl)(phenyl)amino)methyl))phenyl)-5-(difluoromethyl)-1,3,4-oxadiazole], on human recombinant HDAC6, the “HDAC6 selectivity (fold)” value came to 542 fold and the concentration for half-maximal inhibition (IC50) was 93 nM. Moreover, the IC50 at human recombinant HDAC1 is 50200 nM.

As for `CCN1[C@H](C)CN(S(=O)(=O)N(Cc2ccc(-c3nnc(C(F)F)o3)cn2)c2ccccc2)C[C@@H]1C` [Compound 11661, (3S,5R)—N-((5-(5-(difluoromethyl)-1,3,4-oxadiazol-2-yl)pyridin-2-yl)methyl)-4-ethyl-3,5-dimethyl-N-phenylpiperazine-1-sulfonamide], at human recombinant HDAC6, the “HDAC6 selectivity (fold)” value came to 1886 fold and the IC50 was 61 nM. Further, on human recombinant HDAC1, the half-maximal inhibitory concentration (IC50) stood at 116000 nM.

As to `Cl.O=S(=O)(N1CCNCC1)N(Cc1ccc(-c2nnc(C(F)(F)F)o2)cc1F)c1cccc(F)c1` [Compound 11309, N-(2-fluoro-4-(5-(trifluoromethyl)-1,3,4-oxadiazol-2-yl)benzyl)-N-(3-fluorophenyl)piperazine-1-sulfonamide Hydrochloride], on human recombinant HDAC6, the “HDAC6 selectivity (fold)” value is listed as 710 fold. Besides, the IC50 on human recombinant HDAC6 was determined as 58 nM; at human recombinant HDAC1, 41500 nM.

For the compound `C[C@@H]1CN(S(=O)(=O)N(Cc2ccc(-c3nnc(C(F)F)o3)cc2)c2cccnc2)C[C@H](C)N1C` [Compound 11662, (3S,5R)—N-(4-(5-(difluoromethyl)-1,3,4-oxadiazol-2-yl)benzyl)-3,4,5-trimethyl-N-(pyridin-3-yl)piperazine-1-sulfonamide], at human recombinant HDAC6, the “HDAC6 selectivity (fold)” value came to 1182 fold and the IC50 was determined as 47 nM. For the same compound, the IC50 on human recombinant HDAC1 turned out to be 55300 nM.

Regarding `O=S(=O)(N1CCN(C2COC2)CC1)N(Cc1ccc(-c2nnc(C(F)F)o2)cn1)c1cccc(Cl)c1` [Compound 11832, N-(3-chlorophenyl)-N-((5-(5-(difluoromethyl)-1,3,4-oxadiazol-2-yl)pyridin-2-yl)methyl)-4-(oxetan-3-yl)piperazine-1-sulfonamide], on human recombinant HDAC6, the “HDAC6 selectivity (fold)” value came to 4761 fold and the IC50 came out at 21 nM.

In the case of `CC(C)C(=O)N1CCN(S(=O)(=O)N(Cc2ccc(-c3nnc(C(F)F)o3)cc2F)c2ccccc2)CC1` [Compound 11304, N-(4-(5-(difluoromethyl)-1,3,4-oxadiazol-2-yl)-2-fluorobenzyl)-4-isobutyryl-N-phenylpiperazine-1-sulfonamide], on human recombinant HDAC6, the “HDAC6 selectivity (fold)” value worked out at 1912 fold and the IC50 came to 52 nM.

`Cc1cccc(N(Cc2ccc(-c3nnc(C(F)F)o3)cn2)S(=O)(=O)N2CCN(C)[C@@H](C)C2)c1` [Compound 11827, (S)—N-((5-(5-(difluoromethyl)-1,3,4-oxadiazol-2-yl)pyridin-2-yl)methyl)-3,4-dimethyl-N-(m-tolyl)piperazine-1-sulfonamide]: on human recombinant HDAC6, the “HDAC6 selectivity (fold)” value turned out to be 1923 fold and the IC50 came to 52 nM.

Consider `CC(=O)N1[C@H](C)CN(S(=O)(=O)N(Cc2ccc(-c3nnc(C(F)F)o3)cc2)c2ccccc2)C[C@@H]1C` [Compound 11641, (3S,5R)-4-acetyl-N-(4-(5-(difluoromethyl)-1,3,4-oxadiazol-2-yl)benzyl)-3,5-dimethyl-N-phenylpiperazine-1-sulfonamide], for which, at human recombinant HDAC6, the “HDAC6 selectivity (fold)” value came out at 2989 fold and the IC50 came to 33 nM.

For the compound `Cc1cccc(N(Cc2ccc(-c3nnc(C(F)F)o3)cn2)S(=O)(=O)N2CCN(C3COC3)CC2)c1` [Compound 11833, N-((5-(5-(difluoromethyl)-1,3,4-oxadiazol-2-yl)pyridin-2-yl)methyl)-4-(oxetan-3-yl)-N-(m-tolyl)piperazine-1-sulfonamide], on human recombinant HDAC6, the “HDAC6 selectivity (fold)” value was 2040 fold and the IC50 was determined as 49 nM.

With `Cl.O=S(=O)(N1CCNCC1)N(Cc1ccc(-c2nnc(C(F)F)o2)cc1F)c1ccccc1` [Compound 11301, N-(4-(5-(difluoromethyl)-1,3,4-oxadiazol-2-yl)-2-fluorobenzyl)-N-phenylpiperazine-1-sulfonamide Hydrochloride], at human recombinant HDAC6, the “HDAC6 selectivity (fold)” value came out at 3622 fold and the IC50 is 28 nM.

Turning to `CS(=O)(=O)N1CCN(S(=O)(=O)N(Cc2ccc(-c3nnc(C(F)F)o3)cc2F)c2ccccc2)CC1` [Compound 11305, N-(4-(5-(difluoromethyl)-1,3,4-oxadiazol-2-yl)-2-fluorobenzyl)-4-(methylsulfonyl)-N-phenylpiperazine-1-sulfonamide], at human recombinant HDAC6, the “HDAC6 selectivity (fold)” value came to 2620 fold and the IC50 came out at 38 nM.

Consider `O=S(=O)(N1CCN(C2COC2)CC1)N(Cc1ccc(-c2nnc(C(F)F)o2)cn1)c1ccc(F)c(Cl)c1` [Compound 11672, N-(3-chloro-4-fluorophenyl)-N-((5-(5-(difluoromethyl)-1,3,4-oxadiazol-2-yl)pyridin-2-yl)methyl)-4-(oxetan-3-yl)piperazine-1-sulfonamide], for which, on human recombinant HDAC6, the “HDAC6 selectivity (fold)” value is on record as 7142 fold and the IC50 was 14 nM.

As to `CS(=O)(=O)N1CCN(S(=O)(=O)N(Cc2ccc(-c3nnc(C(F)(F)F)o3)cc2F)c2ccccc2)CC1` [Compound 11297, N-(2-fluoro-4-(5-(trifluoromethyl)-1,3,4-oxadiazol-2-yl)benzyl)-4-(methylsulfonyl)-N-phenylpiperazine-1-sulfonamide], at human recombinant HDAC6, the “HDAC6 selectivity (fold)” value was 805 fold and the half-inhibitory concentration (IC50) stood at 124 nM.

Take `CN1CCN(S(=O)(=O)N(Cc2ccc(-c3nnc(C(F)F)o3)cc2F)c2ccccc2)CC1` [Compound 11306, N-(4-(5-(difluoromethyl)-1,3,4-oxadiazol-2-yl)-2-fluorobenzyl)-4-methyl-N-phenylpiperazine-1-sulfonamide]: on human recombinant HDAC6, the “HDAC6 selectivity (fold)” value amounted to 4363 fold and the IC50 is 23 nM.

In the case of `CN(CCN1CCN(S(C)(=O)=O)CC1)S(=O)(=O)N(Cc1ccc(-c2nnc(C(F)F)o2)cc1)c1ccccc1` [Compound 11714, 2-((4-(((N-methyl-N-(2-(4-(methylsulfonyl)piperazin-1-yl)ethyl)sulfamoyl)(phenyl)amino)methyl))phenyl)-5-(difluoromethyl)-1,3,4-oxadiazole], on human recombinant HDAC6, the “HDAC6 selectivity (fold)” value came out at 616 fold and the half-maximal inhibitory concentration (IC50) is 162 nM.

`CN1CCN(S(=O)(=O)N(Cc2ccc(-c3nnc(C(F)(F)F)o3)cc2F)c2ccccc2)CC1` [Compound 11298, N-(2-fluoro-4-(5-(trifluoromethyl)-1,3,4-oxadiazol-2-yl)benzyl)-4-methyl-N-phenylpiperazine-1-sulfonamide]: on human recombinant HDAC6, the “HDAC6 selectivity (fold)” value is on record as 1333 fold and the IC50 was 75 nM.

In the case of `CC(=O)N1CCN(S(=O)(=O)N(Cc2ccc(-c3nnc(C(F)(F)F)o3)cc2F)c2cccc(F)c2)CC1` [Compound 11311, 4-acetyl-N-(2-fluoro-4-(5-(trifluoromethyl)-1,3,4-oxadiazol-2-yl)benzyl)-N-(3-fluorophenyl)piperazine-1-sulfonamide], at human recombinant HDAC6, the “HDAC6 selectivity (fold)” value is 1188 fold and the IC50 was found to be 84 nM.

In the case of `O=S(=O)(N1CCOCC1)N(Cc1ccc(-c2nnc(C(F)F)o2)cc1)c1ccc(F)cc1` [Compound 11199, N-(4-(5-(difluoromethyl)-1,3,4-oxadiazol-2-yl)benzyl)-N-(4-fluorophenyl)morpholine-4-sulfonamide], at human recombinant HDAC6, the “HDAC6 selectivity (fold)” value is on record as 1911 fold and the IC50 is 52 nM.

Turning to `CCC(=O)N1CCN(S(=O)(=O)N(Cc2ccc(-c3nnc(C(F)(F)F)o3)cc2F)c2ccccc2)CC1` [Compound 11295, N-(2-fluoro-4-(5-(trifluoromethyl)-1,3,4-oxadiazol-2-yl)benzyl)-N-phenyl-4-propionylpiperazine-1-sulfonamide], at human recombinant HDAC6, the “HDAC6 selectivity (fold)” value was 751 fold and the IC50 was determined as 133 nM.

Turning to `Cc1cccc(N(Cc2ccc(-c3nnc(C(F)F)o3)cn2)S(=O)(=O)N2CCN(C)[C@H](C)C2)c1` [Compound 11823, (R)—N-((5-(5-(difluoromethyl)-1,3,4-oxadiazol-2-yl)pyridin-2-yl)methyl)-3,4-dimethyl-N-(m-tolyl)piperazine-1-sulfonamide], at human recombinant HDAC6, the “HDAC6 selectivity (fold)” value worked out at 2083 fold and the IC50 was 48 nM.

With `CN1CCN(S(=O)(=O)N(Cc2ccc(-c3nnc(C(F)F)o3)cc2F)c2cccnc2)CC1` [Compound 11320, N-(4-(5-(difluoromethyl)-1,3,4-oxadiazol-2-yl)-2-fluorobenzyl)-4-methyl-N-(pyridin-3-yl)piperazine-1-sulfonamide], on human recombinant HDAC6, the “HDAC6 selectivity (fold)” value turned out to be 1829 fold and the IC50 came to 55 nM.
